Source: US20240376098A1, “METHODS OF TREATMENT USING BCN057, BCN077 AND ANALOGS” (BCN Biosciences L.L.C., priority 2021, published 2024)

Columns and labels:
[1] = test system: Panc-1 cells; assay: RealTime-Glo Annexin V Apoptosis and Necrosis Assay; format: cell-based, human; settings: serial dilutions, 10 minutes to 6 hours
Procedure: To validate the involvement of apoptosis in BCN057 induced cell death, the Panc1 cells with/without BCN057 were subjected to Anexin V staining. Anexin V staining was performed up to 6 hours and measured as a function of dose response of BCN057. […] FIG. 2B is a graph of Annexin V Apoptosis and Necrosis Assay in Panc-1 cells. Panc-1 cells were exposed to serial dilutions of BCN057 in the presence or absence of the RealTime-Glo™ Annexin V Apoptosis and Necrosis Assay Reagent. The plate was incubated at 37° C./5% CO2 and luminescence (Annexin V binding) was measured over a period of six hours. […] Apoptosis appeared to increase with increasing concentrations of BCN057.

[2] = test system: PD-1 expression on human T-lymphocytes; assay: Western blot of PD-1 on T-lymphocytes co-cultured with Panc-1 cells; format: cell-based; settings: co-culture with Panc-1, 10 μM, sustained over 12 hours
Procedure: (§1) Cell lines and cell culture: Panc-1 cells were cultured in DMEM medium supplemented with 10% Fetal Bovine Serum and maintained at 37° C.5% CO2. Human Peripheral Blood Pan-T Cells were cultured in serum free T cells expansion media with 10 ng/ml of rhIL-2, T-cell activator and expanded as per the manufacturer instructions. Panc-1 cells and T-Cells were grown and expanded separately in T75 flasks. For co-culture experiments with Panc-1 cell, 2.5 million T-cells per well were plated in the well using a 6 well plate. 2.5 million Panc-1 Cells were plated in the thinsert which was placed into the well of the 6 well plate in order to have the cells physically separated but share media. The cells were incubated for 24 hours at 37° C., 5% CO2. At 24 hours the media was replaced with media containing vehicle, or 10 uM BCN057 and were incubated for the following timepoints: 1 hr, 6 hr, 12 hr, 24 hrs. The Panc-1 cells were removed by gently scraping the cells from the thinsert.
Western Blot: Cells were harvested and lysed in cell lysis buffer on ice for 15 minutes and the lysate was centrifuged at 13,000 rpm at 4° C. for 10 minutes. The supernatant was transferred into a new tube for BCA protein quantification assay (Thermo Fisher Scientific) and the samples were normalized. 3× loading buffer (Cell Signaling) was added the protein sample and boiled for 5 minutes. The samples were used for SDS-PAGE analysis and transferred to nitrocellulose membrane. The membrane was blocked with 5% BSA at room temperature for 1 hour and incubated with primary antibody at 4° C. overnight. The membrane was washed with 1×TBST 5 minutes for 3 times and incubated with horseradish peroxidase-conjugated secondary antibody for 1 hour at room temperature. The protein was visualized by SuperSignal West Pico Stable Peroxide Solution (Thermo Fisher Scientific). The blot was visualized by chemiluminescence using a BioRad Versadoc Imaging System.
BCN057 and Immune Checkpoint blockade: An emerging method of treatment for many forms of cancer, including PDAC, is immune checkpoint inhibitors. […]

[3] = test system: LGR5 and BMI1 in Panc-1 cells; assay: qPCR of stem cell markers LGR5 and BMI1 in Panc-1 cells; format: cell-based, human; settings: 10 μm
Procedure: QPCR: To compare the mRNA levels of BMI1 and LGR5 target genes in Panc-1 cells treated with BCN057 or vehicle. Quantitative PCR (qPCR) was used to measure the expression of the stem cell markers LGR5, and BMI1 which was detected by real-time PCR using the primer pairs listed in Table 1. Total RNA was extracted using TRIzol kit (Invitrogen, CA, USA)
Primers used for qPCR of LGR5 and BMI1 in pancreatic cancer cells Panc-1 treated with 10 μM of BCN057 or vehicle.
Others have implemented BMI1 as a key contributor to chemoresistance and invasiveness which is measurable in Panc-1.

[4] = test system: Lgr5+ ISCs; assay: Lgr5+ intestinal stem cells in 5FU treated Lgr5-Cre-ERT-GFP mice; format: in vivo; settings: 5FU treated mice receiving BCN057
Procedure: 5FU is a component of FOLFIRINOX and the active agent metabolized from Capecitabine (Xeloda®). To, examine the effect of BCN057 against chemo induced toxicity in Lgr5+ ISCs, Lgr5-Cre-ERT-GFP mice were pre-treated with 5FU as reported and then subjected to BCN057 treatment.
Stains of GI crypts with green=LGR5+ stem cells. Mice were treated with 5FU and 5FU+BCN057 for 5 days. BCN057 was administered for two extra days after 5FU treatment. Small intestine samples were harvested and stained for LGR5 at 3 days after the last 5FU injection. FIG. 5D is a histogram of the quantitation by % of LGR5+ cells remaining in […] sections at the crypt base showing prevention of 5-FU induced apoptosis in LGR5+ stem cells in GI.

[5] = test system: PDL-1 expression on Panc-1 cells; assay: Western blot of PDL-1 on Panc-1 cells co-cultured with T-lymphocytes; format: cell-based, human; settings: co-culture, 2.5, 5, 7.5 and 10 hrs
Procedure: as §1
Western Blot: Cells were harvested and lysed in cell lysis buffer on ice for 15 minutes and the lysate was centrifuged at 13,000 rpm at 4° C. for 10 minutes. The supernatant was transferred into a new tube for BCA protein quantification assay (Thermo Fisher Scientific) and the samples were normalized. 3× loading buffer (Cell Signaling) was added the protein sample and boiled for 5 minutes. […]

[6] = test system: Panc-1 cells; assay: Time lapse microscope images of pancreatic cancer cells after drug; format: cell-based, human; settings: 10 μM BCN057
Procedure: FIG. 2A is a group of images showing pancreatic cancer cell growth after treatment with 10 μM BCN057 at time 0, 15, 30, 60, 120 and 240 minutes.
Further, these doses span the concentrations found in plasma during efficacy studies in rodents. Subsequently, microscope images appeared to show cell blebbing and fragmentation shortly after application of BCN057 indicating possible apoptosis. […] Blebbing and cell fragmentation was noted within 20 min of incubation with drug (as shown with the arrows). Cell fragmentation was seen between 20-30 minutes after exposure to the drug.

## COc1ccc2cc(-c3nc4ccc(C)cn4c3NCc3ccco3)c(=O)[nH]c2c1 [BCN057, 3-[(Furan-2-ylmethyl)-amino]-2-(7-methoxy-2-oxo-1,2-dihydro-quinolin-3-yl)-6-methyl-imidazo[1,2-a]pyridin-1-ium]
[1]
  Apoptosis (Annexin V binding, luminescence): Dose and time dependent increase in apoptosis
[2]
  PD-1 expression on human T-lymphocytes: decreased significantly within the first hour
[3]
  Abundance of LGR5 and BMI1 cell populations: no significant increase in the abundance
[4]
  Lgr5+ve ISCs in jejunal section: significant presence of Lgr5+ve ISCs
[5]
  PDL-1 expression on Panc-1 cells: not appreciably changed
[6]
  Time at which cell fragmentation was seen after exposure: 20 to 30 min
  Time to blebbing and cell fragmentation: ≤ 20 min
